Source: patent publication US9725430B2, “Use of small molecule inhibitors targeting EYA tyrosine phosphatase” (Children's Hospital Medical Center, priority 2013, dated 2017)

Tests used:
HUVECs [1] = experiment: HUVEC proliferation (MTT); type: cell-based, human; conditions: 5 μM, 24 hours
EYA3-SIX2 interaction = EYA3-SIX2 interaction (Homo sapiens (Human), UniProt Q99504); experiment: His-SIX2 pull-down of EYA3 on Ni-NTA; type: binding; conditions: 50 μM compound, 15 minutes
Text: Each point represents the mean and standard deviation of two independent readings. (C) Plots of Vmax and Km as a function of inhibitor concentration. […] The mixture was loaded on a Ni-NTA column. Beads were washed with 3 column volumes of load buffer (last washes, lanes 2 and 6). Proteins retained on the beads are shown in lanes 3 and 7. Lanes 4 and 8 are molecular weight markers.
One function of the catalytic domain of the EYAs is to mediate its interaction with the SIX proteins. This complex then translocates to the nucleus where the SIX-EYA complex can activate transcription.

[2] = system: A673 (Ewings sarcoma) cells; experiment: Mouse xenograft model of Ewings sarcoma; type: in vivo, nude mice; conditions: intra-peritoneal 25 mg/kg/day or intra-tumor
Protocol: The affect of EYA inhibitors on a mouse xenograft model of Ewings sarcoma was tested. 5×10^6 A673 (Ewings sarcoma) cells in 0.1 ml sterile matrigel were injected subcutaneously into the dorsal flank region of nude mice. Approximately 5 days after injection, the tumors were about 100-300 mm^3. […] The dose for intra-peritoneal injections was 25 mg/kg/day. The tumor size was monitored every other day. Animals were sacrificed after 2 weeks, or when tumor volume approached 10% of animal weight.

HUVECs [3] = experiment: HUVEC transwell migration; type: cell-based, human; conditions: 5 μM
Text: In order to determine whether EYA3 knock down would affect cell migration, a modified Boyden chamber assay was used to measure HUVEC migration. Briefly, human umbilical vein endothelial cells (HUVECs) were purchased from Lonza (Walkersville, Md.) and maintained in the endothelial cell growth medium (PromoCell, Hleidelberg, Germany), under a 5% CO2 atmosphere. MCF10A cells from ATCC were stably transfected with either pcDNA 3.2N5-DEST (vector control), V5-EYA2 or V5-EYA2(D250N). Transwell migration experiments were performed as previously described (Pandey, R. N. et al. Oncogene 29, 3715-3722, (2010)).

retinal vasculature = experiment: Mouse model of oxygen-induced retinopathy; type: in vivo, mice; conditions: 100 or 50 pmoles injected at P12, analyzed at P16
Text: The mouse model of oxygen-induced retinopathy mimics the retinopathy characteristic of proliferative retiopathy conditions such as retinopathy of prematurity and diabetic retinopathy. […] The resulting retinal hypoxia after day 12, when pups were brought back to 20% O2, induced excessive hypoxia-driven angiogenesis. A characteristic large avascular area at the center of the retina and excessive regrowth of superficial vessels (pre-retinal neovascular tufts) in the mid-peripheral region was observed. […] In contrast, inhibition of either Vegf or Vegfr2 in OIR experiments suppresses both neovascular tuft formation and revascularization.

PTP1B = PTP1B (Homo sapiens (Human), UniProt P18031); experiment: PTP1B-catalyzed pNPP hydrolysis; type: biochemical; conditions: for IC50: pNPP substrate
Chain of PTP1B (P18031 whole entry, species assumed, the tested form may be a part): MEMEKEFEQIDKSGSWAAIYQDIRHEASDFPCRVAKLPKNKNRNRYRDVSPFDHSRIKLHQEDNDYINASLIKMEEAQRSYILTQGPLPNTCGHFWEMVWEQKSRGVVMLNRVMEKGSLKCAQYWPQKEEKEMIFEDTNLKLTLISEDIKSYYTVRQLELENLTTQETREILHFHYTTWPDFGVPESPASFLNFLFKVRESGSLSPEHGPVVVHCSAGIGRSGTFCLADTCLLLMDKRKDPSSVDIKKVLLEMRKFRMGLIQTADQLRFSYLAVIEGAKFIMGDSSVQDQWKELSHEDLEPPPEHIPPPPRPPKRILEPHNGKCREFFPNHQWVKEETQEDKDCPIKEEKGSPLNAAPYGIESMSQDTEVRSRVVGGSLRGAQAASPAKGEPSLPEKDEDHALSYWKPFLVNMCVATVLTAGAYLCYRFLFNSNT
Protocol: The catalytic domain of human Eya2 (“hEYA2(ED)”) was similarly sub-cloned as a polyhistidine fusion construct in the vector pDEST-527. Fusion protein was purified by NiNTA chromatography and followed by size-exclusion chromatography over a Superdex-75 column. The relative purity of protein samples was determined using SDS-PAGE. PTP1B was purified as described previously (Rayapureddi, J. P. et al. Nature 426, 295-298 (2003), incorporated by reference in its entirety).
(§1) An inhibitory assay was conducted using the previously described p-nitrophenylphosphate assay (Rayapureddi, J. P. et al. Nature 426, 295-298 (2003)). Briefly, ED was incubated in a reaction mixture containing 20 mM MES pH 6, 2 mM MgCl2, 125 μM inhibitor, 3.4 mM para-nitrophenol phosphate (pNPP) and 0.01 μg/μL enzyme.
PTP1B is a classical Cys-based tyrosine phosphatase.

HUVECs [4] = experiment: HUVEC tubulogenesis on Matrigel; type: cell-based, human; conditions: for tube formation on Matrigel: HUVEC
Text: Primary endothelial cells (ECs) on basement membrane rapidly attach, align themselves and form capillary-like tubules with lumens and tight cell-cell contacts. […] To better understand the stage in matrigel tube-formation affected by compound 1g cells plated on growth-factor reduced matrigel and treated with either vehicle or compound 1g were followed. Differences become apparent within the first two hours and were clearly visible at the 6-hour time-point. The ECs are much less organized in the presence of compound 1g. […] The effect of compound 1g on tube formation was attenuated in the presence of high concentrations of fetal bovine serum (FBS), likely reflecting non-specific protein binding.
The EYA inhibitors were also tested in tubulogenesis assays. The tubulogenesis assays were performed in 15-well micro-slide (ibidi LLC, Verona Wis.), using growth factor-reduced matrigel (BD Bioscience, Billerica, Mass.). The matrix was prepared by loading 10 μl of matrigel in each micro-slide well and allowing it to solidify for 30 minutes at 37° C. HUVECs were trypsinized and resuspended at 100.000 cell/ml in EBM+2.5% FBS. 50 μl (5,000 cell) were loaded on top of the solidified matrigel and the preparation was incubated for 20 hours at 37° C. in a humidified incubator in a 5% CO2 atmosphere. Bright field images were taken using an inverted microscope at 2.5× magnification, which allowed imaging of the whole well in two pictures that were later merged in Photoshop. Tubular structures were traced and counted using NeuroJ (NIH, USA). In experiments with inhibitor, the inhibitor was added to the cell suspension before loading. Each sample was loaded in triplicate, and each treatment was repeated for reproducibility.

Eya3(ED) = Eya3(ED) (Mus musculus (Mouse), UniProt P97480); experiment: p-nitrophenylphosphate (pNPP) assay, catalytic domain of Eya3; type: biochemical; conditions: pNPP substrate
Chain of Eya3(ED) (P97480 223-510): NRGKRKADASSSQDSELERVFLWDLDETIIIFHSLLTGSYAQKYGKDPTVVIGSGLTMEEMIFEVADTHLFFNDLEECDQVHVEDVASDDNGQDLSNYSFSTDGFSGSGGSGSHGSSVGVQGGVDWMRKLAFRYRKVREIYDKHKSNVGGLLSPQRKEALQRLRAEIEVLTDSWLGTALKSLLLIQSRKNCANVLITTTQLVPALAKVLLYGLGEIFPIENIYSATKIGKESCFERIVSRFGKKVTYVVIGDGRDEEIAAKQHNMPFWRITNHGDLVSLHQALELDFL
Text: The catalytic domain of mouse Eya3 (“ED”, comprising residues 223-510 of Eya3) was purified as described by Rayapureddi, J. P. et al. (FEBS Lett 580, 3853-3859 (2006), incorporated by reference in its entirety). For full-length Eya3 (“hEYA3”), human Eya3 isoform 2 (representing the major species identified in human cell lines by mass spectrometry, expressed as residues 127-573 of NM_001990, isoform 1) was sub-cloned into pDEST565 to express a poly-histidine-Glutathione-S-transferase (His-GST) tagged fusion protein with a TVMV protease site. The protein was purified by glutathione-S-transferase affinity chromatography followed by TVMV cleavage, Ni-NTA chromatography, and finally size exclusion chromatography.
as §1
The compounds were then tested using full-length human recombinant, purified EYA3 and pNPP as a substrate. Compounds were dissolved in DMSO and diluted as needed. […] Reactions were incubated at 30° C. for 30 minutes and quenched with 100 mM EDTA pH 10. IC50 values were then calculated directly from regression curves using PRISM software. […]

Chain of EYA3-SIX2 interaction (Q99504 whole entry, looked up): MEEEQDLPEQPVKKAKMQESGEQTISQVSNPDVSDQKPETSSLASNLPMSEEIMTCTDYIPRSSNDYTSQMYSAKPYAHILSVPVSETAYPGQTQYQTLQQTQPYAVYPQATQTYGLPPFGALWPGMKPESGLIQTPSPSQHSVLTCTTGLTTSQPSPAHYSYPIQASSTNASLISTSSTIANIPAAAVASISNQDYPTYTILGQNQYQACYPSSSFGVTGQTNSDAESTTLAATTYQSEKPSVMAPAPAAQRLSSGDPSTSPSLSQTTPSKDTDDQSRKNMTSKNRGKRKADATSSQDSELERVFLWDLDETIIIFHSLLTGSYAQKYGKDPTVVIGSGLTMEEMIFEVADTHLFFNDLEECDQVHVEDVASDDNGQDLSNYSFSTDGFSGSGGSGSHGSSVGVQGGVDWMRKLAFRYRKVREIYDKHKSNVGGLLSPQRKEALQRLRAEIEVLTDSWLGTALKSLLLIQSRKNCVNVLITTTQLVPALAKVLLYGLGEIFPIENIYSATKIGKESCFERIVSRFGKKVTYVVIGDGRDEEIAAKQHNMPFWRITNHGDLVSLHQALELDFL
Chain of EYA3-SIX2 interaction (Q9NPC8 whole entry partner, looked up): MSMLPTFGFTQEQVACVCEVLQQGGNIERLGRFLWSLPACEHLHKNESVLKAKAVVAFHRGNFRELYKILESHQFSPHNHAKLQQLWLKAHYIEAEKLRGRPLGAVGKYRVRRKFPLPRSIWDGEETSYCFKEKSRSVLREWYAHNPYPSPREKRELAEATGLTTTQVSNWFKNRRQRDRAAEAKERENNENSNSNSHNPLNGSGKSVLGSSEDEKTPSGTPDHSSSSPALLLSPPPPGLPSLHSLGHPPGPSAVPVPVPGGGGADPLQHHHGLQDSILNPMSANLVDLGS

EYA3-SIX2 interaction in presence of inhibitor (EYA3-SIX2 interaction) | IC50 (PTP1B) [µM] | IC50 (Eya3(ED)) [µM] | fold greater activity towards EYA3 than PTP1B (PTP1B; EYA3 vs PTP1B) | Structure (SMILES) | HUVEC cell proliferation (HUVECs [1]) | tumor growth [2] | HUVEC cell motility (HUVECs [3]) | formation of neovascular tufts (retinal vasculature) | tubulogenesis inhibition (HUVECs [4]; 7.5 μM) | tube formation on Matrigel (HUVECs [4])
unaffected | 53.8 | – | – | CCc1oc2ccccc2c1C(=O)c1cc(Br)c(O)c(Br)c1 [Compound 1, Benzbromarone, reference compound] | no effect on cell proliferation | able to reduce tumor growth | attenuated HUVEC cell motility | Significant reduction in the formation of neovascular tufts | effective at the highest concentrations tested | inhibit EYA3 protein in cell migration and tubulogenesis
– | > 150 | 19.2 | over 100 fold | CCc1oc2ccccc2c1C(=O)c1ccc(O)cc1 [Compound 1a] | no effect on cell proliferation | – | attenuated HUVEC cell motility | Significant reduction in the formation of neovascular tufts | – | inhibit EYA3 protein in cell migration and tubulogenesis
